The text below walks through data of patent US9708321B2, “Spiro-quinazolinone derivatives and their use as positive allosteric modulators of mGluR4” (Merck Patent GmbH, priority 2013, dated 2017).

One experiment deals with T1, hmGluR4 (Homo sapiens, UniProt Q14833).
T1 construct: host or cells: HEK293T
T1 sequence (Q14833 33-912): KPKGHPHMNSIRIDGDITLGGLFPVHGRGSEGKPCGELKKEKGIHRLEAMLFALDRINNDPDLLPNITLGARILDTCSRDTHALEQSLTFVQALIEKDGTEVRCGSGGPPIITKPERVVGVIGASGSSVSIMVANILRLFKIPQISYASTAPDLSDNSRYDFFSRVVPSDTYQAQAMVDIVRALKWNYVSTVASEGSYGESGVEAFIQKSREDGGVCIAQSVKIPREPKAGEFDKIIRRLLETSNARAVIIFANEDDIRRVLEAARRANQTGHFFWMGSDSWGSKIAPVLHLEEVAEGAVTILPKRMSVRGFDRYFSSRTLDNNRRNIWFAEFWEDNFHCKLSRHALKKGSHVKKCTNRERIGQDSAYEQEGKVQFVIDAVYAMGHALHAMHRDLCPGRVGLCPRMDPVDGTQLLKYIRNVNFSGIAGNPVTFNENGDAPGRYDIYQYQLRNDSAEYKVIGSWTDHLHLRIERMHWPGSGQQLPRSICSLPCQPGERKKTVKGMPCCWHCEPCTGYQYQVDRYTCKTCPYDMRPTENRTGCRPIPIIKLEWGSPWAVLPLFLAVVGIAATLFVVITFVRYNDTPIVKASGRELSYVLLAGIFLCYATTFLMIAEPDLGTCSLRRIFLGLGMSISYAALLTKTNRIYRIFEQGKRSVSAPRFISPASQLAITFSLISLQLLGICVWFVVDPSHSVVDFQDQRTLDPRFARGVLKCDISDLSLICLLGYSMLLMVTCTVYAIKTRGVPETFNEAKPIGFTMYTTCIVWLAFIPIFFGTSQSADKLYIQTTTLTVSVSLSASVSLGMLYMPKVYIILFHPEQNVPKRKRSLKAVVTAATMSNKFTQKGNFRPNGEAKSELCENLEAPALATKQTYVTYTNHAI
Briefly: HEK-293 mGluR4 cells cAMP assay with EC20 L-Glutamate (HTRF).
Conditions: not given
The class given is cell-based. The gist of the method: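 PAM mode in mGluR4 HEK293T suspension cells, glutamine-starved overnight; 10 μM forskolin (final) with EC20 L-glutamate (2.3 μM), 2000 cells/well, 30 min at 37 °C. cAMP measured by two-step HTRF after 60 min at room temperature. Basal control EC20 glutamate; EC100 400 μM glutamate (2×).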
Background: Changes in cAMP serve as a functional read-out for many G protein-coupled receptors.
Compound `COc1ccc(N2C(=O)c3ccc(Br)cc3NC23CCN(Cc2ccc(F)c(F)c2)CC3)cc1F` [Compound 24, 7′-Bromo-1-(3,4-difluorobenzyl)-3′-(3-fluoro-4-methoxyphenyl)-1′H-spiro[piperidine-4,2′-quinazolin]-4′(3′H)-one] showed an EC50 of less than 1 µM.

The same experiment, now with this note: positive allosteric activity at EC20 L-Glutamate, 10 μM Forskolin, HEK293T mGluR4 cells, cAMP HTRF; read-out: hrmGluR4/HEK293T-hmGluR4 (EC50).
With `COc1ccc(N2C(=O)c3ccccc3NC23CCN(Cc2ccccc2C)CC3)cc1` [Compound 109, 3′-(4-Methoxyphenyl)-1-(2-methylbenzyl)-1′H-spiro[piperidine-4,2′-quinazolin]-4′(3′H)-one], the EC50 lay in the range of 1 to 10 µM.
Still for that read-out and setting: as for `COc1ccc(N2C(=O)c3ccc(N4CCCCC4)cc3NC23CCN(Cc2ccc(F)c(F)c2)CC3)cc1` [Compound 83, 1-(3,4-Difluorobenzyl)-3′-(4-methoxyphenyl)-7′-(piperidin-1-yl)-1′H-spiro[piperidine-4,2′-quinazolin]-4′(3′H)-one], the figure is 1 to 10 µM; as for `O=C1c2ccc(Br)cc2NC2(CCN(Cc3ccc(F)c(F)c3)CC2)N1c1ccc(Cl)cc1` [Compound 25, 7′-Bromo-3′-(4-chlorophenyl)-1-(3,4-difluorobenzyl)-1′H-spiro[piperidine-4,2′-quinazolin]-4′(3′H)-one], less than 1 µM.
The same measure, in the same setting: with `COc1ccc(N2C(=O)c3ccccc3NC23CCN(Cc2cc(F)cc(F)c2)CC3)cc1` [Compound 80, 1-(3,5-Difluorobenzyl)-3′-(4-methoxyphenyl)-1′H-spiro[piperidine-4,2′-quinazolin]-4′(3′H)-one] the figure was 1 to 10 µM; with `O=C1c2ccc(C(F)(F)F)cc2NC2(CCN(Cc3cccc(Cl)c3)CC2)N1c1ccc(OC(F)(F)F)cc1` [Compound 10, 1-(3-Chlorobenzyl)-3′-(4-(trifluoromethoxy)phenyl)-7′-(trifluoromethyl)-1′H-spiro[piperidine-4,2′-quinazolin]-4′(3′H)-one], less than 1 µM; with `O=C1c2ccc(Br)cc2NC2(CCN(Cc3ccccn3)CC2)N1c1ccc(OC(F)(F)F)cc1` [Compound 103, 7′-Bromo-1-(pyridin-2-ylmethyl)-3′-(4-(trifluoromethoxy)phenyl)-1′H-spiro[piperidine-4,2′-quinazolin]-4′(3′H)-one], 1 to 10 µM.
On the same count and under the same terms, with `COc1ccc(N2C(=O)c3ccc(C)cc3NC23CCN(Cc2ccc(F)c(F)c2)CC3)cc1` [Compound 60] the figure was less than 1 µM.
For the compound `COc1ccc(N2C(=O)c3ccccc3NC23CCN(Cc2ccccc2Cl)CC3)cc1` [Compound 111, 1-(2-Chlorobenzyl)-3′-(4-methoxyphenyl)-1′H-spiro[piperidine-4,2′-quinazolin]-4′(3′H)-one], the EC50 lay within 1 to 10 µM.
The same measure, in the same setting: as for `N#Cc1cccc(CN2CC3(C2)Nc2cc(C(F)(F)F)ccc2C(=O)N3c2ccc(OC(F)(F)F)cc2)c1` [Compound 91, 3-((4′-Oxo-3′-(4-(trifluoromethoxy)phenyl)-7′-(trifluoromethyl)-3′,4′-dihydro-1′H-spiro[azetidine-3,2′-quinazolin]-1-yl)methyl)benzonitrile], the figure is 1 to 10 µM; as for `COC(=O)c1ccc2c(c1)NC1(CCN(Cc3ccc(F)c(F)c3)CC1)N(c1ccc(OC(F)(F)F)cc1)C2=O` [Compound 36, Methyl 1-(3,4-difluorobenzyl)-4′-oxo-3′-(4-(trifluoromethoxy)phenyl)-3′,4′-dihydro-1′H-spiro[piperidine-4,2′-quinazoline]-7′-carboxylate], less than 1 µM.
The same measure, in the same setting: as for `COc1ccc(N2C(=O)c3ccc(Br)cc3NC23CCN(Cc2ccc(F)c(F)c2)CC3)cc1` [Compound 17, 7′-Bromo-1-(3,4-difluorobenzyl)-3′-(4-methoxyphenyl)-1′H-spiro[piperidine-4,2′-quinazolin]-4′(3′H)-one], the figure is less than 1 µM; as for `COc1ccc(N2C(=O)c3ccccc3NC23CCN(Cc2cccc(Cl)c2)CC3)cc1` [Compound 104, 1-(3-Chlorobenzyl)-3′-(4-methoxyphenyl)-1′H-spiro[piperidine-4,2′-quinazolin]-4′(3′H)-one], 1 to 10 µM.
Still for that read-out and setting: as for `COC(=O)c1ccc2c(c1)NC1(CN(Cc3ccccc3)C1)N(c1ccc(OC)cc1)C2=O` [Compound 35, Methyl 1-benzyl-3′-(4-methoxyphenyl)-4′-oxo-3′,4′-dihydro-1′H-spiro[azetidine-3,2′-quinazoline]-7′-carboxylate], the figure is less than 1 µM.
`O=C1c2ccc(F)cc2CC2(CCN(Cc3ccc(F)c(F)c3)CC2)N1c1ccc(OC(F)(F)F)cc1` [Compound 127, 1′-(3,4-difluorobenzyl)-6-fluoro-2-(4-(trifluoromethoxy)phenyl)-2,4-dihydro-1H-spiro[isoquinoline-3,4′-piperidin]-1-one]: the EC50 was in the range of 1 to 10 µM.
Still for that read-out and setting: with `O=C1c2ccc(Br)cc2NC2(CCN(Cc3cnc(Br)s3)CC2)N1c1ccc(OC(F)(F)F)cc1` [Compound 110, 7′-Bromo-1-((2-bromothiazol-5-yl)methyl)-3′-(4-(trifluoromethoxy)phenyl)-1′H-spiro[piperidine-4,2′-quinazolin]-4′(3′H)-one] the figure was 1 to 10 µM; with `O=C1c2ccc(C(F)(F)F)cc2NC2(CCN(Cc3ccc(F)c(F)c3)CC2)N1c1ccc(OC(F)(F)F)cc1` [Compound 16, 1-(3,4-Difluorobenzyl)-3′-(4-(trifluoromethoxy)phenyl)-7′-(trifluoromethyl)-1′H-spiro[piperidine-4,2′-quinazolin]-4′(3′H)-one], less than 1 µM.
On the same count and under the same terms, as for `COc1ccc(N2C(=O)c3ccccc3NC23CN(Cc2ccc(Cl)cc2)C3)cc1` [Compound 85, 1-(4-Chlorobenzyl)-3′-(4-methoxyphenyl)-1′H-spiro[azetidine-3,2′-quinazolin]-4′(3′H)-one], the figure is 1 to 10 µM; as for `COC(=O)c1ccc2c(c1)NC1(CCN(Cc3ccccc3)CC1)N(c1ccc(OC)cc1)C2=O` [Compound 15, Methyl 1-benzyl-3′-(4-methoxyphenyl)-4′-oxo-3′,4′-dihydro-1′H-spiro[piperidine-4,2′-quinazoline]-7′-carboxylate], less than 1 µM.
Still for that read-out and setting: with `CCOC(=O)c1ccc2c(c1)NC1(CN(C(C)c3ccc(F)cc3)C1)N(c1ccc(OC(F)(F)F)cc1)C2=O` (stereo not drawn) [Compound 87, Ethyl 1-(1-(4-fluorophenyl)ethyl)-4′-oxo-3′-(4-(trifluoromethoxy)phenyl)-3′,4′-dihydro-1′H-spiro[azetidine-3,2′-quinazoline]-7′-carboxylate] the figure was 1 to 10 µM.
As to `COc1ccc(N2C(=O)c3ccc(C(=O)OC(C)C)cc3NC23CCN(Cc2ccc(F)c(F)c2)CC3)cc1` [Compound 3, Isopropyl 1-(3,4-difluorobenzyl)-3′-(4-methoxyphenyl)-4′-oxo-3′,4′-dihydro-1′H-spiro[piperidine-4,2′-quinazoline]-7′-carboxylate], the EC50 was less than 1 µM.
With `COc1ccc(N2C(=O)c3ccccc3NC23CCN(Cc2ccccc2OC(F)(F)F)CC3)cc1` [Compound 67, 3′-(4-Methoxyphenyl)-1-(2-(trifluoromethoxy)benzyl)-1′H-spiro[piperidine-4,2′-quinazolin]-4′(3′H)-one], the EC50 was in the range of 1 to 10 µM.
As to `CC(C)OC(=O)c1ccc2c(c1)NC1(CCN(Cc3ccc(F)c(F)c3)CC1)N(c1ccc(OC(F)(F)F)cc1)C2=O` [Compound 31, Isopropyl 1-(3,4-difluorobenzyl)-4′-oxo-3′-(4-(trifluoromethoxy)phenyl)-3′,4′-dihydro-1′H-spiro[piperidine-4,2′-quinazoline]-7′-carboxylate], the EC50 is less than 1 µM.
The same measure, in the same setting: as for `COc1ccc(N2C(=O)c3ccccc3NC23CCN(Cc2cc(Cl)ccc2Cl)CC3)cc1` [Compound 13, 1-(2,5-Dichlorobenzyl)-3′-(4-methoxyphenyl)-1′H-spiro[piperidine-4,2′-quinazolin]-4′(3′H)-one], the figure is less than 1 µM; as for `COc1ccc(N2C(=O)c3ccc(OC)cc3NC23CCN(Cc2cccc(C#N)c2)CC3)cc1` [Compound 100, 3-((7′-Methoxy-3′-(4-methoxyphenyl)-4′-oxo-3′,4′-dihydro-1′H-spiro[piperidine-4,2′-quinazolin]-1-yl)methyl)benzonitrile], 1 to 10 µM.
Turning to `O=C1c2ccc(F)cc2NC2(CCN(Cc3ccc(F)c(F)c3)CC2)N1c1ccc(Cl)cc1` [Compound 64, 3′-(4-Chlorophenyl)-1-(3,4-difluorobenzyl)-7′-fluoro-1′H-spiro[piperidine-4,2′-quinazolin]-4′(3′H)-one], the EC50 was less than 1 µM.
As to `CCOC(=O)c1ccc2c(c1)NC1(CN(C(c3ccc(F)c(F)c3)C(F)(F)F)C1)N(c1ccc(OC(F)(F)F)cc1)C2=O` (stereo not drawn) [Compound 34, Ethyl 1-(1-(3,4-difluorophenyl)-2,2,2-trifluoroethyl)-4′-oxo-3′-(4-(trifluoromethoxy)phenyl)-3′,4′-dihydro-1′H-spiro[azetidine-3,2′-quinazoline]-7′-carboxylate], the EC50 is less than 1 µM.
On the same count and under the same terms, as for `COCCOc1ccc(N2C(=O)c3ccc(Br)cc3NC23CCN(Cc2ccc(F)c(F)c2)CC3)cc1` [Compound 37, 7′-bromo-1-(3,4-difluorobenzyl)-3′-(4-(2-methoxyethoxyl)phenyl)-1′H-spiro[piperidine-4,2′-quinazolin]-4′(3′H)-one], the figure is less than 1 µM; as for `N#Cc1ccc2c(c1)NC1(CCN(Cc3ccc(F)c(F)c3)CC1)N(c1ccc(OC(F)(F)F)cc1)C2=O` [Compound 79, 1-(3,4-Difluorobenzyl)-4′-oxo-3′-(4-(trifluoromethoxy)phenyl)-3′,4′-dihydro-1′H-spiro[piperidine-4,2′-quinazoline]-7′-carbonitrile], 1 to 10 µM; as for `O=C1c2ccc(Br)cc2NC2(CCN(Cc3ccc(F)c(F)c3)CC2)N1c1ccc(OC(F)(F)F)cc1` [Compound 32, 7′-Bromo-1-(3,4-difluorobenzyl)-3′-(4-(trifluoromethoxy)phenyl)-1′H-spiro[piperidine-4,2′-quinazolin]-4′(3′H)-one], less than 1 µM.
